From patent US20230219961A1, “Pyridine acetamide derivative serving as CDK inhibitor, and preparation method therefor and use thereof” (Suzhou AlphaMa Biotechnology Co., Ltd., priority 2020, published 2023)

Experiments:
[1] = tested on: RNA pol II Ser5; experiment: CDK7 signaling pathway in Mv4-11 cells: phosphorylation of RNA pol II Ser5 (SDS-PAGE/blot); type: cell-based; conditions: 6 hours, FIG. 1
Method: (§1) The inhibition effect of the compounds of the present disclosure on CDK7/CDK9 protein downstream RNA pol II Ser ⅖ in Mv4-11 cells in vitro was determined by the following method:
(§2) 1) Cell inoculation: Mv4-11 cells with good growing state in logarithmic growth phase were inoculated into a six-well plate with 2^∗10^5 cells/well, and cultured overnight at 37° C. and under 5% CO2 condition.
(§3) 2) Administration: The compound was diluted with 2 mL of 1640 medium containing 10% FBS and 1% PS. […] of the medium containing the compound was added to the overnight cultured cells, and it was placed in a 37° C., 5% CO2 cell incubator for 6 hours.
(§4) 3) Protein extraction and quantification: Cell suspension was collected and centrifuged at 1000 g for 5 min, the cell culturing medium was discarded, and PBS was added for resuspension and centrifugation; it was repeated three times, the residual liquid was sucked dry, 80 uL cell lysate was added per well, it was placed to ice, shaked for 10 min on a shaker and centrifuged at 12000 g for 5 min, and the supernatant, ie, the total protein solution, was collected; the protein concentration was tested by BCA.
(§5) 4) 12% SDS-PAGE electrophoresis was used to detect, after that trarsmembran was carried out at 100 V voltage for 3 h, blocking solution (Beyotime: P0235) was used to block for 15 min, TBST(Sangon Biotech: C520002) was used to wash the membrane three times, and the primary antibody (target protein CST:13499, internal reference Beyotime: AF1186) was incubated at 4° C. overnight; the membrane was washed with TBST three times; the secondary antibody (Beyotime: A0208) was incubated at room temperature for 1 hour; the membrane was washed with TBST three times; ECL (Tanon: 180-501) was used for exposure and coloration.

[2] = target: T1, CDK9 (Homo sapiens, UniProt P50750); experiment: Inhibitory effect on the kinase activity of CDK9 in vitro (Caliper); type: biochemical; conditions: 10 uM ATP, 0.2 ug/uL CTD3 peptide; read-out: CDK 9 IC50
T1 construct: purchased Millipore 14-685 M
T1 sequence (P50750 whole entry): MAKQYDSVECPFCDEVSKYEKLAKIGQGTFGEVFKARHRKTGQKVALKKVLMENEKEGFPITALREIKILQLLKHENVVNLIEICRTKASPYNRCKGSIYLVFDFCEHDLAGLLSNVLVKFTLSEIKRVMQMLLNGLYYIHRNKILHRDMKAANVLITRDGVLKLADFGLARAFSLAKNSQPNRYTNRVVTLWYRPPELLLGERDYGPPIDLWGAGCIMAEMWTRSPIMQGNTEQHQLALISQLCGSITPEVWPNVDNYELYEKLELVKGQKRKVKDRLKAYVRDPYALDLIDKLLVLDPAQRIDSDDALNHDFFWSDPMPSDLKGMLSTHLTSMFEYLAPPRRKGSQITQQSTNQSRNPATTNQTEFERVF
T1 sequence (O60563 whole entry partner): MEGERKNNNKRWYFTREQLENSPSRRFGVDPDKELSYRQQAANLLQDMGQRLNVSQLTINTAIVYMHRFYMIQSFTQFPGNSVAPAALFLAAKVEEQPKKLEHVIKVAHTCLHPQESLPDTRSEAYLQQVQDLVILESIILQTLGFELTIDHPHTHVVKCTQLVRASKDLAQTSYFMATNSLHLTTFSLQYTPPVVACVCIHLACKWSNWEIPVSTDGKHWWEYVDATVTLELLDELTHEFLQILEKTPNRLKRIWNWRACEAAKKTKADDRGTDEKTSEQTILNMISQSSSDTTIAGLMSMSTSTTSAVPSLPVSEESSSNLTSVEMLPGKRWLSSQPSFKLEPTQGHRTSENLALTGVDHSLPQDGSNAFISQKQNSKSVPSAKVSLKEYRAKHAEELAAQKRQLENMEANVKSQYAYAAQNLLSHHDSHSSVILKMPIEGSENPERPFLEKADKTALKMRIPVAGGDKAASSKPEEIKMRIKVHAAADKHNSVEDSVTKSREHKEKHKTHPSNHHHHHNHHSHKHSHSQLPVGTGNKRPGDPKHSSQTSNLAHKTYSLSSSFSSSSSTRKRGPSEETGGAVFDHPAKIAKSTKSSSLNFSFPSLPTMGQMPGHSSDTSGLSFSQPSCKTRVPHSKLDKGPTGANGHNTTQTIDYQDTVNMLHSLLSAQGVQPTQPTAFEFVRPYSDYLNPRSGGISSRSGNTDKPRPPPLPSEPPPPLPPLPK
Method: (§6) The detection of the inhibitory effect of the compounds of the present disclosure on the kinase activity of CDK7/CDK9 in vitro was determined by the following method:
(§7) 1) The compound was accurately weighed and dissolved in DMSO (Sigma, D2650) to a concentration of 100 mM for later use. The compound was diluted to 5-fold of a desired highest concentration, and diluted 4-fold into 6 concentration gradients, allowing the final concentration of the compound in the reaction system to be CDK7: 3000, 750, 188, 47, 12, 3 nM; CDK9: 100, 25, 6.25, 1.56, 0.39, 0.098 nM. 5 ul was taken to a 384-well plate (Corning, 4512).
(§8) 2) Kinase reaction: 10uL protein kinase (CDK7: Eurofilns,14-476 M; CDK9: Millipore,14-685 M) solution was added to the 384-well plate (Corning, 4512) containing the compound, and allowed to stand at room temperature for 10 min; a mixed solution of ATP(Sigma, A7699) and substrate polypeptide (CDK7: 77 uM ATP&0.2ug/uL CTD3 peptide (GL Biochem,SY356885); CDK9: 10 uM ATP&0.2 ug/uL CTD3 peptide (GL Biochem,SY356885)) was added, and allowed to stand at 28° C. for a short time; and then a stop solution was added to terminate the reaction at 25 uL per well.
(§9) 3) Detection: Data was collected by Caliper.
(§10) 4) Calculation: The IC50 value was calculated by Graphpad prism 5.0 software according to the concentration of the compound and the corresponding signal value.

[3] = tested on: Mv4-11 cells; experiment: Inhibition of the proliferation of Mv4-11 cells (CCK8); type: cell-based; conditions: Homo sapiens, MV4-11, 48 h
Method: The inhibition effect of the compounds of the present disclosure on the proliferation of Mv4-11 cells (ATCC:CRL-9591™) in vitro was determined by the following method:
1) Cell inoculation: Mv4-11 cells with good growing state in logarithmic growth phase were inoculated into a 96-well plate at 20000 cells per well and 50 uL, and cultured at 37° C. and under 5% CO2 condition for 2-4 h.
2) Administration: The compound was diluted with 1640 medium containing 10% FBS and 1% PS: 0.4 uL of the compound with an initial concentration of 1 mM was placed in a dilution plate, each added with 199.6 uL of the above culture medium, and gradiently diluted 4-fold, so that the final concentration in the added cell was 1000, 250, 62.5, 15.625, 3.91, 0.98, 0.24, 0.06 nM. 50 µL of the medium containing the compound was sequentially added, and it was placed in a 37° C., 5% CO2 cell incubator for 48 hours.
3) Detection: 10uL CCK8 (Dojindo, CK 04) solution was added to each well, incubated in 37° C. 5% CO2 cell incubator for 2 hours, and then the OD450 value was read by Synegry H1(BioTek) multimode microplate reader.
4) Calculation: The IC50 value was calculated using Graphpad prism 5.0 software according to the concentration of the compound and the corresponding signal value.

[4] = target: T2, CDK7 (Homo sapiens, UniProt P50613); experiment: Inhibitory effect on the kinase activity of CDK7 in vitro (Caliper); type: biochemical; conditions: 77 uM ATP, 0.2 ug/uL CTD3 peptide; read-out: CDK 7 IC50
T2 construct: purchased Eurofilns (sic; Eurofins) 14-476 M
T2 sequence (P50613 whole entry): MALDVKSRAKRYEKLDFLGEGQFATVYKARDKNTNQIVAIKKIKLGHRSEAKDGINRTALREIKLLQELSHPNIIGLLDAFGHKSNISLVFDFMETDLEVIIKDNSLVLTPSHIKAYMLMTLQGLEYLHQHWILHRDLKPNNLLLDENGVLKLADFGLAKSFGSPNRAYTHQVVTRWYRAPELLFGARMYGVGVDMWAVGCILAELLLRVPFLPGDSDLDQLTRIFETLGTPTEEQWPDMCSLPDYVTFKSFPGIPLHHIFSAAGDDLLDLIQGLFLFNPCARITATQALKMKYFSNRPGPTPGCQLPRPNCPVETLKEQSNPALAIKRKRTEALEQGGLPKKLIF
T2 sequence (P51946 whole entry partner): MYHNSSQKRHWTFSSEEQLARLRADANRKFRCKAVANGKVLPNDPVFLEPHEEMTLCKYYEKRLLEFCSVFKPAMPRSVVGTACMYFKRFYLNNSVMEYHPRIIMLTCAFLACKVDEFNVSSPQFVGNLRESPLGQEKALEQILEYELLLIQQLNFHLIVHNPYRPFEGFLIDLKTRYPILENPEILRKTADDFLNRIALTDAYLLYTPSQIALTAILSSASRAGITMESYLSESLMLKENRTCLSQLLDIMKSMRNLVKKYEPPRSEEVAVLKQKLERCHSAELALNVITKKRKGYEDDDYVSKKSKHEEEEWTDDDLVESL
T2 sequence (P51948 whole entry partner): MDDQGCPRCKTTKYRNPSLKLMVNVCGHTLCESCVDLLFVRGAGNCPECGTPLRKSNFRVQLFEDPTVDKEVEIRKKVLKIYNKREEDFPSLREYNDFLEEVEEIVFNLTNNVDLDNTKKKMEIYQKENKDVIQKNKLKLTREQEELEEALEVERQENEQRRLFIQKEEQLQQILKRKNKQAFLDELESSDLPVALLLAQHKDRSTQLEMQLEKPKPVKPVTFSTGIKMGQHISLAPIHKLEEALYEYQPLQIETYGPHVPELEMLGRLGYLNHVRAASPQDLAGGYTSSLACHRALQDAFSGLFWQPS
Method: as §6, §7, §8, §9, §10

[5] = tested on: RNA pol II Ser2; experiment: CDK9 signaling pathway in Mv4-11 cells: phosphorylation of RNA pol II Ser2 (SDS-PAGE/blot); type: cell-based; conditions: 6 hours, FIG. 1
Method: as §1, §2, §3, §4, §5

| SMILES | IC50 [2] [nM] | IC50 [3] [nM] | IC50 [4] [nM] | inhibitory effect on the phosphorylation of the CDK7 protein downstream RNA pol II Ser5 [1] | inhibitory effect on the phosphorylation of CDK9 protein downstream RNA pol II Ser2 [5] |
| --- | --- | --- | --- | --- | --- |
| CNC(=O)c1cccc(CC(=O)Nc2cc(-c3cnn4c3CC(C)(C)C4)c(Cl)cn2)c1 [Compound 3, 3-(2-((5-chloro-4-(5,5-dimethyl-5,6-dihydro-4H-pyrrolo[1,2-b]pyrazol-3-yl)pyridin-2-yl)amino)-2-oxoethyl)-N-methylbenzamide] | 4 | 3.9 | 103 | significant inhibitory effect | – |
| C[C@H](C(=O)Nc1cc(-c2cnn3c2CC(C)(C)C3)c(Cl)cn1)c1cccc(C#N)n1 [Compound 13-1, (S)-N-(5-chloro-4-(5,5-dimethyl-5,6-dihydro-4H-pyrrolo[1,2-b]pyrazol-3-yl)pyridin-2-yl)-2-(6-cyanopyridin-2-yl)propionamide (assumed)] | 44.4 | 148 | – | – | significant inhibitory effect |
| C[C@@H](C(=O)Nc1cc(-c2cnn3c2CC(C)(C)C3)c(Cl)cn1)c1cccc(C#N)n1 [Compound 13-2, (R)-N-(5-chloro-4-(5,5-dimethyl-5,6-dihydro-4H-pyrrolo[1,2-b]pyrazol-3-yl)pyridin-2-yl)-2-(6-cyanopyridin-2-yl)propionamide (assumed)] | 3 | 4.8 | 328 | significant inhibitory effect | – |

Stronger by IC50 [2], values ahead:

| IC50 [2] [nM] | IC50 [3] [nM] | IC50 [4] [nM] | SMILES | inhibitory effect on the phosphorylation of the CDK7 protein downstream RNA pol II Ser5 [1] | inhibitory effect on the phosphorylation of CDK9 protein downstream RNA pol II Ser2 [5] |
| --- | --- | --- | --- | --- | --- |
| 2.7 | 1.6 | 19 | C[C@@H](C(=O)Nc1cc(-c2cnn3c2CC(C)(C)C3)c(Cl)cn1)c1cccc(C(N)=O)c1 [Compound 2-2, (R)-3-(1-((5-chloro-4-(5,5-dimethyl-5,6-di hydro-4H-pyrrolo[1,2-b]pyrazol-3-yl)pyridin-2-yl)amino)-1-oxopropan-2-yl)benzamide (assumed)] | significant inhibitory effect | significant inhibitory effect |
| 2.9 | 13 | – | C[C@@H](C(=O)Nc1cc(-c2cnn3c2CC(C)(C)C3)c(Cl)cn1)c1cccnc1 [Compound 11-2, (R)-N-(5-chloro-4-(5,5-dimethyl-5,6-dihydro-4H-pyrrolo[1,2-b]pyrazol-3-yl)pyridin-2-yl)-2-(pyridin-3-yl)propionamide (assumed)] | significant inhibitory effect | significant inhibitory effect |
